Experimental data reported in patent publication US20190091177A1, “METHOD OF TREATING SELECTED PATIENT POPULATION EXPERIENCING DRAVET SYNDROME” (ZOGENIX INTERNATIONAL LIMITED, priority 2017, published 2019).
Where two headings read alike, the source gives them in different places.

Legend:
[1] = system: patients with Dravet syndrome; experiment: Study 1: Phase 3 randomized, double blind, placebo controlled study (ZX008-1501/ZX008-1502) of liquid fenfluramine formulation as adjunctive therapy; type: in vivo, human
Method: The first 119 subjects to be randomized in both identical studies combined were analyzed and reported as Study 1 (FIG. 1), covered by a Statistical Analysis Plan (SAP).
Primary and key secondary endpoints in the Study 1 SAP were pre-determined. All patients were treated twice per day over a period of 14 weeks using an oral syringe to administer the formulation. The treatment period included a two-week titration period and a 12-week maintenance period.
The initial results of Study 1 are outlined below. The randomized, double blind, placebo controlled, Phase 3 study enrolled 119 patients across sites in the United States, Canada, Europe and Australia. The median age of patients was 8 years, the mean age of patients was 9 years (range, 2-18 years) (FIG. 2).
Patients were titrated to their target dose over two weeks, and then remained at that fixed dose for 12 weeks. The mean baseline convulsive seizure frequency across the study groups was approximately 40 seizures per month. 110 (92%) patients completed the study (85% 0.8 mg/kg/day; 100% 0.2 mg/kg/day; 93% placebo).
The proportion of patients who achieved ≥75% seizure reductions, a secondary (non-key) efficacy measure, is also presented.
The mean number of convulsive seizure free days, defined as a day for which diary data are available and no convulsive seizures have been reported, was determined for each treatment group during the Baseline and T+M Periods. Using a parametric analysis, comparisons for the ZX008 groups to placebo were estimated from an ANCOVA model with treatment group (3 levels) and age group (<6 years, ≥6 years) as factors, log baseline number of convulsive seizure free days as a covariate and log convulsive seizure free days (Titration+Maintenance, or Maintenance Period) as response. The mean (SD) number of convulsive seizure free days per 28 days during the Baseline Period was 12.6 (7.68), 15.7 (6.80), and 14.6 (7.59) for the placebo, 0.2 and 0.8 mg/kg/day groups, respectively. […]

[2] = system: patients with Dravet syndrome; settings: cited from earlier work; for >50% Reduction in Seizures (patients) / Seizure-free Patients: fenfluramine and valproate, average daily dose 0.34 mg/kg/day for 1 to 22 years, 12 patients, 0.34 mg/kg/day
[3] = long-term fenfluramine treatment

Structure (SMILES): CCNC(C)Cc1cccc(C(F)(F)F)c1 (racemic) [Fenfluramine, (RS)-N-ethyl-1-[3-(trifluoromethyl)phenyl]propan-2-amine]
- Mean (SD) non-convulsive seizure frequency per 28 days at the end of the T+M Period ([1]; 0.2 mg/kg/day, baseline 193.6 (478.45)): 93.7 (219.69) per 28 days
- Reduction from Baseline in non-convulsive seizure frequency (%, [SD]) ([1]; 0.8 mg/kg/day, end of T+M Period): 59.1% (40.14)
- Mean (SD) non-convulsive seizure frequency per 28 days at the end of the T+M Period ([1]; 0.8 mg/kg/day, baseline 335.2 (758.58)): 127.9 (297.39) per 28 days
- >50% Reduction in Seizures (patients) [2]: 9/12 (75%)
- Seizure-free Patients [2]: 8/12 (66%)
- >50% Reduction in Seizures (patients) ([2]; listed as fenfluramine): 75%
- Seizure-free Patients ([2]; listed as fenfluramine): 66.6%
- Echocardiography monitoring for possible heart valve defects [2, 3]: No clinically relevant defects were identified
- Effect on types of seizures [2, 3]: effectively reduced the incidence of all types of seizures
